According to patent US20220169660A1, “CYCLIC AMINO-PYRAZINECARBOXAMIDE COMPOUNDS AND USES THEREOF” (SILVERBACK THERAPEUTICS, INC., priority 2019, published 2022):
pEC50: −log10 of the molar value.

Key:
[1] = test system: HEK293 SMAD2p luciferase reporter cells transfected to stably express full length human LRRC15; assay: Cell reporter assay of anti-LRRC15 antibody drug conjugates (SMAD2p luciferase); assay type: cell-based; conditions: linker-payload conjugated to anti-LRRC15 antibody; human TGFβ1 1.6 ng/ml; absolute EC50
Excerpt: The linker payloads in Table 8 were covalently attached to an anti-LRRC15 antibody. The LRRC15 antibody is the murine M25 antibody or a humanized variant thereof (see PCT Application Publication No. WO 2017/095805, incorporated herein by reference in its entirety). Conjugation to the linker-payload is via the interchain disulfides. The antibodies have either a wild-type Fc domain or a null Fc domain. The Fcnull mutations for human IgG1 are L234A, L236A, G237A, and K322A and the Fcnull mutations for murine IgG2a are L234A, L236A, G237A, K322A, and P329G; numbering by EU index.
The resultant antibody drug conjugates were tested via a cell reporter assay. HEK293 SMAD2p luciferase reporter cells transfected to stably express full length human LRRC15 were seeded in 96 well plates at 40,000 cells/well in an assay media of MEM +0.5% FBS, 1% NEAA, 1% NaPyr & 1% Pen/Strep. Conjugates and controls were added to wells in a dose titration ranging from 500 nM to 0.03 nM. After 24 hours of culture at 37° C. in a 5% CO2 environment human TGFβ1 was added (PeproTech Inc.) to a final concentration of 1.6 ng/ml followed by an additional 18 hour of culture. Luciferase Steady Glo reagent (Promega Corporation) was added as recommended by manufacturer. After incubating 10 minutes with shaking, SMAD2p activity was determined by measuring luminescence with an Envision Plate Reader (Perkin-Elmer Inc.) and an absolute EC50 was determined using Prism Software v8.01 (GraphPad Inc.).

[2] = test system: TGFβ/SMAD Singling Pathway SBE reporter cell line; assay: TGFβ reporter assay (in vitro small molecule screening); assay type: cell-based; conditions: SBE luciferase reporter cells, TGFβ stimulation, 18 h, luminescence
Procedure: TGFβ/SMAD Singling Pathway SBE reporter cell line was obtained from BPS Bioscience. Cells were passed, expanded, and stored in liquid nitrogen as per the supplier's instructions with the exception that growth media is changed to DMEM-C with Geneticin (DMEM supplemented with 10% fetal bovine serum, 1×NEAA, 1 mM Pyruvate, 2 mM glutamine, 50 μg/mL penicillin, 50 U/mL streptomycin and 400 μg/mL of Geneticin). The assay media was MEM supplemented with […] fetal bovine serum, 1×NEAA, 1 mM Pyruvate, 50 μg/mL penicillin and 50 U/mL streptomycin.
Test samples (at desired concentrations diluted in assay media) were added to a 96-well assay plate, 20 μL per well. Reporter cells were harvested from the tissue culture flasks by incubation in small quantity of PBS at 37° C. for two minutes after the media in the flask is removed and cells rinsed with PBS. Cells were counted and diluted in the assay media at approximately 0.5×10^6 cells/mL and then 80 μL/well of cells were added to the assay plate containing the 20 μL/well of test samples (or media only), and incubated for approximately 5-6 hours at 37° C. in a 5% CO2 humidified incubator. After that time, 15 μL of TGFβ diluted to 12 ng/mL in the assay media was added to the plate. Controls included TGFβ titration (from 50 to 0 ng/mL) without inhibitors, and media only (without cells, inhibitor or TGFβ). Plates were incubated at 37° C. in a 5% CO2 humidified incubator for 18 h. Luciferase substrate solution is subsequently added at 100 μL per well, incubated in the dark at room temperature for 15 min, and luminescence is measured using a luminometer. EC50 values and curve fits were obtained using Prism (GraphPad Software).

TGFBR2 = biological target: T1, TGFBR2 (Homo sapiens, UniProt P37173); assay: TGFBR2 RBC enzyme assay (Reaction Biology Corp.); assay type: biochemical
T1 construct: purchased Reaction Biology Corp
T1 sequence (P37173 23-567): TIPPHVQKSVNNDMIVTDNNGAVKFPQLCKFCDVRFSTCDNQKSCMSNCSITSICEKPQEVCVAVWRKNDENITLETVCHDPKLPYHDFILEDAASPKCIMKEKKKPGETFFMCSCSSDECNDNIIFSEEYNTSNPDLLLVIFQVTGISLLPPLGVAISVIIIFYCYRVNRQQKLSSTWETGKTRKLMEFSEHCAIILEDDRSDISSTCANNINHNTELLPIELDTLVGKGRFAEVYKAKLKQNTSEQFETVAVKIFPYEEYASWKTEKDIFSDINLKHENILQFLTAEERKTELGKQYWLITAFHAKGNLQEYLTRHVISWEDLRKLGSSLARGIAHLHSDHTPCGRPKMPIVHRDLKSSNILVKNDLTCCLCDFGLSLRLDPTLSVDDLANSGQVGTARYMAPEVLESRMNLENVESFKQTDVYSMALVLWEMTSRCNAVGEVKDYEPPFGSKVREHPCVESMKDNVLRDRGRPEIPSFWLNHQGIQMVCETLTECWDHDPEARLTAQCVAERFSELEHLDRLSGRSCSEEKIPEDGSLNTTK
Procedure: Compounds of the disclosure were assayed by Reaction Biology Corp. using the TGFBR2 RBC enzyme assay.

pEC50 [2] | pEC50 (TGFBR2) | Molecule | pEC50 [1]
– | – | CC(C)[C@H](NC(=O)CCOCCOCCOCCOCCN1C(=O)C=CC1=O)C(=O)N[C@@H](CCCNC(N)=O)C(=O)Nc1ccc(COC(=O)NCCCOc2ccc3c(c2)OCCN(C)c2ccncc2NC(=O)c2nc-3cnc2N)cc1 [Compound B-65] | 6.00 to 9.00
– | – | 4-((S)-2-((S)-2-(6-(2,5-dioxo-2,5-dihydro-1H-pyrrol-1-yl)hexanamido)-3-methylbutanamido)-5-ureidopentanamido)benzyl (3-((2^5-amino-6-methyl-3-oxo-10-oxa-4,6-diaza-2(2,6)-pyrazina-5(3,4)-pyridina-1(1,3)-benzenacyclodecaphane-15-yl)oxy)propyl)carbamate [Compound B-16] | 6.00 to 9.00
– | – | CC(C)[C@H](NC(=O)CCOCCOCCOCCOCCN1C(=O)C=CC1=O)C(=O)N[C@@H](CCCNC(N)=O)C(=O)Nc1ccc(COC(=O)NCCCCc2ccc3cc2CCCCN(C)c2ccncc2NC(=O)c2nc-3cnc2N)cc1 [Compound B-62] | 6.00 to 9.00
– | – | CC(C)[C@H](NC(=O)CCOCCOCCOCCOCCN1C(=O)C=CC1=O)C(=O)N[C@@H](CCCNC(N)=O)C(=O)Nc1ccc(COC(=O)NCCCOc2ccc3cc2OCCCN(C)c2ccncc2NC(=O)c2nc-3cnc2N)cc1 [Compound B-61] | 6.00 to 9.00
– | – | CC(C)[C@H](NC(=O)CCOCCOCCOCCOCCN1C(=O)C=CC1=O)C(=O)N[C@@H](CCCNC(N)=O)C(=O)Nc1ccc(COC(=O)NCCCOc2ccc3cc2CCCCN(C)c2ccncc2NC(=O)c2nc-3cnc2N)cc1 [Compound B-63] | 6.00 to 9.00
– | – | CC(C)[C@H](NC(=O)CCOCCOCCOCCOCCN1C(=O)C=CC1=O)C(=O)N[C@@H](CCCNC(N)=O)C(=O)Nc1ccc(COC(=O)NCCCOc2ccc3c(c2)-c2cnc(N)c(n2)C(=O)Nc2cnccc2N(C)CCO3)cc1 [Compound B-64] | 6.00 to 9.00
6.00 to 9.00 | 7.00 to 9.00 | CN1CCOc2cc(OCCCN)ccc2-c2cnc(N)c(n2)C(=O)Nc2cnccc21 [Compound 65, 2^5-amino-1^4-(3-aminopropoxy)-6-methyl-9-oxa-4,6-diaza-2(2,6)-pyrazina-5(3,4)-pyridina-1(1,2)-benzenacyclononaphan-3-one] | –
6.00 to 9.00 | 7.00 to 9.00 | CN1CCOc2cccc(c2)-c2cnc(N)c(n2)C(=O)Nc2cnccc21 [Compound 11, 2^5-amino-6-methyl-9-oxa-4,6-diaza-2(2,6)-pyrazina-5(3,4)-pyridina-1(1,3)-benzenacyclononaphan-3-one] | –
